This note sets out measurements from US20230203126A1, “A COMPOSITION COMPRISING S-ARRESTIN PEPTIDES” (WORG PHARMACEUTICALS (HANGZHOU) CO., LTD., priority 2019, published 2023).

For test [1], the system named is SAg-specific hybridoma cells with fresh or fixed APC (VAVY) cells, MHCII. Nature of the test: Antigen processing independent presentation system (APIPS) assay. The format is cell-based, DR3tg mice. The following applies: 10 or 25 µg/ml peptide, IL-2 ELISA after 48 h. On the procedure:
FIG. 10: Variants of peptide 15N3K are apitopes. The ability of variants of the 15N3K peptide to behave as apitopes (i.e. bind to an MHCII molecule and be presented to a T cell by an antigen-presenting cell without undergoing antigen processing) was tested using an APIPS assay. DR3tg mice were immunised with SAg and hybridoma’s were generated. 5*10^4 SAg-specific hybridoma cells were cultured with 5*10^4 fresh or fixed commercial APC (VAVY) cells. Cultures were stimulated with 10 or 25 µg/ml of peptide, as indicated in the graph. T cell activation was measured by IL-2 ELISA on supernatants collected after 48 h. The graph represents the mean of duplicate measurements ± SEM.
Apitopes (Antigen Processing-Independent epiTOPES) are capable of binding to an MHCII molecule and stimulating a response from SAg-specific T cells without further antigen processing. Variants of peptide 15N3K (SEQ ID NO: 3) were tested for their ability to bind to an MHCII molecule and be presented to a T cell hybridoma without further antigen processing in an in vitro antigen processing independent presentation system (APIPS) assay. In other words, peptides consisting of parts of peptide 15N3K and peptides with various degrees of sequence identity with peptide 15N3K were tested for their ability to behave as apitopes.
All but three of the peptides are apitopes.
Antigen-specific hybridoma clones were tested for their reactivity to the peptides, presented by fixed or not fixed (fresh) cells (APCs). 5x10^4 cells were cultured with 10 µg/ml and 25 µg/ml peptide and 5x10^4 fixed or fresh APCs. To fix APCs, cells were incubated with 0.5% paraformaldehyde (Merck, Darmstadt, Germany) (pH7) for 5 min at room temperature (RT). The fixation reaction was stopped by adding 0.4 M glycine (Sigma-Aldrich) and washing the cells in RPMI-10% FCS. After 48 h, antigen-induced IL-2 production was measured by ELISA (R&D Systems, Abingdon, UK).

Test [2] addresses T1, HLA-DR3 (HLA-DRA and DRB1*0301) on CD11c+ dendritic cells of DR3tg mice (human, UniProt P01903 26-254; P79483 30-266).
T1 construct: whole, on cells; DR3tg mice express the HLA-DRB1*0301 molecule but not the mouse MHC-II molecule; also called MHC class II; MHC II molecules
T1 MHC II alpha: not shown
T1 MHC II beta: not shown
Nature of the test: in vivo MHC class II loading assay, DR3tg mice, read out by IFNy of peptide-specific CD4+ T cells. As for the experimental part: FIG. 2: Peptide 17JK is correctly loaded on MHC class II in vivo. Response of peptide-specific CD4+ T cells towards peptide loaded in vivo on dendritic cells is shown. HLA-DR3-transgenic mice were injected subcutaneously with 100 µg of 17JK peptide. 2 h post injection, spleens were dissected and CD11c+ cells (dendritic cells) were isolated. These CD11c+ cells were co-cultured with peptide-specific CD4+ cells for 72 h at 37° C. IFNy was measured in the supernatant of these cultures to evaluate the response to peptide by the CD4+ T cells. (*** p<0.001 Mann-Whitney U-test)
FIG. 3: Peptide 15N3K is correctly loaded on MHC class II in vivo. Response of peptide-specific CD4+ T cells towards peptide loaded in vivo on dendritic cells is shown. HLA-DR3-transgenic mice were injected subcutaneously with 100 µg of 15N3K peptide. 2h post injection, spleens were dissected and CD11c+ cells (dendritic cells) were isolated. These CD11c+ cells were co-cultured with peptide-specific CD4+ cells for 72 h at 37° C. IFNy was measured in the supernatant of these cultures to evaluate the response to peptide by the CD4+ T cells. (*** p<0.001 Mann-Whitney U-test)
DR3tg or DR2tg mice were injected with 100 µg of peptide in 100 µl PBS subcutaneously (s.c.) in the flank. Control animals received a s.c. injection of 100 µl PBS. After 2 hours, spleens were harvested and single-cell suspensions were prepared. […]

Test [3] concerns the target T2, HLA-DR2 (DRA*0101 and DRB1*1501) on CD11c+ dendritic cells of DR2tg mice (human, UniProt P01903 26-254; P01911 30-266).
T2 construct: whole, on cells; DR2tg mice express the HLA-DRB1*1501 molecule but not the mouse MHC class II molecule; also called MHC class II; MHC II molecules
Nature of the test: in vivo MHC class II loading assay, DR2tg mice, read out by IFNy of peptide-specific CD4+ T cells. As for the experimental part:
FIG. 1: Peptide 9K1K is correctly loaded on MHC class II in vivo. Response of peptide-specific CD4+ T cells towards peptide loaded in vivo on dendritic cells is shown. HLA-DR2-transgenic mice were injected subcutaneously with 100 µg of 9K1K peptide. 2 h post injection, spleens were dissected and CD11 c+ cells (dendritic cells) were isolated. These CD11c+ cells were co-cultured with peptide-specific CD4+ cells for 72 h at 37° C. IFNy was measured in the supernatant of these cultures to evaluate the response to peptide by the CD4+ T cells. (* p<0.05 Mann-Whitney U-test)
DR3tg or DR2tg mice were injected with 100 µg of peptide in 100 µl PBS subcutaneously (s.c.) in the flank. Control animals received a s.c. injection of 100 µl PBS. After 2 hours, spleens were harvested and single-cell suspensions were prepared. CD11 c+ cells were positively selected using CD11c microbeads according to the manufacturer’s instructions (Miltenyi Biotec, Bergisch Gladbach, Germany). Average purities of >92% were reached. […] After 72 hours, supernatant of these co-cultures was collected and CD4+ T cell activation was analysed by IFNy ELISA (R&D Systems, Abingdon, UK). In a parallel experiment, CD4+ T cell responses towards peptide added in vitro were assessed to make sure the T cells recognize the peptides presented by the CD11 c+ cells.

“KKKIFKKISRDKSVTIYLGKKK (H-KKKIFKKISRDKSVTIYLGKKK-NH2) [HIP-15CD-KKK, variant of peptide 15N3K]”: the Apitope result in test [1] was “Yes”.

For the molecule “KKKVIFKKISRDKSVKKK (H-KKKVIFKKISRDKSVKKK-NH2) [HIP-15B3-KKK, variant of peptide 15N3K]”, the Apitope result in test [1] is reported as “No”.

“KKKISRDKSVTIYLGKKK (H-KKKISRDKSVTIYLGKKK-NH2) [HIP-15G3-KKK, variant of peptide 15N3K]”: the Apitope result in test [1] was “Yes”.

With “VIFKKISRDKSV (H-VIFKKISRDKSV-NH2) [HIP-15B3, variant of peptide 15N3K]”, the Apitope result in test [1] was “No”.

“KKKVIFKKISRDKSVTIYLKKK (H-KKKVIFKKISRDKSVTIYLKKK-NH2) [HIP-15BC-KKK, variant of peptide 15N3K]”: in test [1], the Apitope entry was “Yes”.

On to “KKKVIFKKISRDKSVTIKKK (H-KKKVIFKKISRDKSVTIKKK-NH2) [HIP-15B1-KKK, variant of peptide 15N3K]”, for which, in test [1], the Apitope entry is “Yes”.

“KKKKKISRDKSVTIYLGKKK (H-KKKKKISRDKSVTIYLGKKK-NH2) [HIP-15E1-KKK, variant of peptide 15N3K]”: the Apitope result in test [1] was “Yes”.

In the case of “VIFKKISRDKSVTI (H-VIFKKISRDKSVTI-NH2) [HIP-15B1, variant of peptide 15N3K]”, the Apitope entry in test [1] is “Yes”.

Turning to “IFKKISRDKSVTIYLG (H-IFKKISRDKSVTIYLG-NH2) [HIP-15CD, variant of peptide 15N3K]”, the Apitope entry in test [1] was “Yes”.

In the case of “VIFKKISRDKSVTIYL (H-VIFKKISRDKSVTIYL-NH2) [HIP-15BC, variant of peptide 15N3K]”, the Apitope result in test [1] is “Yes”.

With “MAASGKTSKSEPNHVIFKKISRDKSV TIYLGNRDYIDHVSQV (H-MAASGKTSKSEPNHVIFKKISRDKSVTIYLGNRDYIDHVSQV-NH2) [HIP-115, variant of peptide 15N3K]”, the Apitope result in test [1] is “Yes”.

Consider “ISRDKSVTIYLG (H-ISRDKSVTIYLG-NH2) [HIP-15G3, variant of peptide 15N3K]”, for which the Apitope result in test [1] is “No”.

Regarding “KKISRDKSVTIYLG (H-KKISRDKSVTIYLG-NH2) [HIP-15E1, variant of peptide 15N3K]”, the Apitope entry in test [1] is “Yes”.

B1: 17JK (peptide)
peptide: H-KKKLTFRRDLYFSRVQVYKKK-NH2
notes: Synthetic S-Ag derived peptide with KKK added at both ends
With B1, the binding result in test [2] is given as “binds”.

B2: 9K1K (peptide)
peptide: H-KKKAFVEQVANVVLKKK-NH2
notes: Synthetic S-Ag (S-arrestin) derived peptide with KKK added at both ends
As to B2, the binding result in test [3] was “binds”.

B3: 15N3K (peptide)
peptide: H-KKKVIFKKISRDKSVTIYLGKKK-NH2
notes: as for B1
On to B3, for which, in test [2], the binding result is “binds”.
